Values quoted from earlier work, collected in patent publication US20100111874A1, “METHOD OF CANCER DETECTION AND TREATMENT” (University of Medicine and Dentistry of New Jresey, priority 2007, published 2010).

Test system: human colon cancer xenografts
Conditions: combined with interferons; nude mice; cited from earlier work

## CCc1c2c(nc3ccc(OC(=O)N4CCC(N5CCCCC5)CC4)cc13)-c1cc3c(c(=O)n1C2)COC(=O)[C@]3(O)CC [CPT-11]
  anticancer activity in combination with interferons: synergistic
